Results taken from patent US10538555B2, “Macrocyclic inhibitors of the PD-1/PD-L1 and CD80(B7-1)/PD-L1 protein/protein interactions” (BRISTOL-MYERS SQUIBB COMPANY, priority 2014, dated 2020).
*1 amine or outer side, *2 acyl side, *3 side chain or, on linkers, in order; H or OH if unused. Where a SMILES comes first, the peptide text is derived from it. Bridges are numbered along the chain shown (N, C = ends). [ ]: non-standard residue; d: D form. Phe(3,4,5-F3) = N[C@@H](Cc1cc(F)c(F)c(F)c1)C(=O)O; d(cisHyp) = O=C(O)[C@H]1C[C@@H](O)CN1; Hyp = O=C(O)[C@@H]1C[C@@H](O)CN1; NMeF = CN[C@@H](Cc1ccccc1)C(=O)O; X1 = O=C([C@H]1COCCN1[*:1])[*:2]; NMehSer = CN[C@@H](CCO)C(=O)O; NMeNle = CCCC[C@H](NC)C(=O)O; hSer = N[C@@H](CCO)C(=O)O; NMeA = CN[C@@H](C)C(=O)O; Orn = NCCC[C@H](N)C(=O)O; dThz = O=C(O)[C@H]1CSCN1

Biological target: T1, Human PD-L1/PD-1 (Homo sapiens, UniProt Q9NZQ7)
T1 construct: TVMV protease cleavage site (C); made in house; host or cells: HEK293T cells
Assay: HTRF Human PD-L1/PD-1 binding assay (PD-1-Ig/PD-L1-His)
Conditions: PD-L1-His 10 nM, PD-1-Ig 20 nM; class symbol; read-out: HTRF Human PD-L1/PD-1 Binding Assay IC50 Range
Summary of the method: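 Step 1: compound with PD-L1-His (10 nM final), 15 min. Step 2: PD-1-Ig (20 nM final), 15 min. Step 3: Eu-cryptate anti-Ig (1 nM) plus APC anti-His (20 nM), 30 min equilibration. Signal taken as 665 nm/620 nm ratio.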

T1 sequence (Q9NZQ7 with tags, fused parts or gaps): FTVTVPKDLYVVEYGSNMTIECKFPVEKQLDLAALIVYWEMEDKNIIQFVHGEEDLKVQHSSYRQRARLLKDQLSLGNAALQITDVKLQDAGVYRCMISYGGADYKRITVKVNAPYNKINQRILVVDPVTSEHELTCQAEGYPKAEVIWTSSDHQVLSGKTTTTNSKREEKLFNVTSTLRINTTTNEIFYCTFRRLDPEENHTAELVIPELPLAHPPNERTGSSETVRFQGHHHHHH

Row | IC50 [nM] | Compound
1 | 1 to 9.9 | CCCC[C@H]1C(=O)N2C[C@H](O)C[C@@H]2C(=O)N[C@@H](CC(=O)O)C(=O)N[C@@H](C(C)C)C(=O)N(C)[C@@H](Cc2ccccc2)C(=O)N[C@@H](CCC(=O)O)C(=O)N2CSC[C@@H]2C(=O)N[C@@H](Cc2c[nH]c3ccccc23)C(=O)N[C@@H](Cc2ccc(O)cc2)C(=O)N[C@@H](CC(C)C)C(=O)N[C@H](C(=O)NCC(N)=O)CSCC(=O)N[C@@H](Cc2cc(F)c(F)c(F)c2)C(=O)N(C)[C@@H](Cc2ccccc2)C(=O)N1C [Example 10148] ({CH2CO}-[Phe(3,4,5-F3)][NMeF][NMeNle][d(cisHyp)]DV[NMeF]E[dThz]WYLCG-NH2; thioether N-13)
2 | 1 to 9.9 | CCCC[C@H]1C(=O)N2C[C@H](O)C[C@@H]2C(=O)N[C@@H](CC(=O)O)C(=O)N[C@@H](C(C)C)C(=O)N(C)[C@@H](Cc2ccccc2)C(=O)N[C@@H](CC(=O)O)C(=O)N2CSC[C@@H]2C(=O)N[C@@H](Cc2c[nH]c3ccccc23)C(=O)N[C@@H](Cc2ccc(O)cc2)C(=O)N[C@@H](CC(C)C)C(=O)N[C@H](C(=O)NCC(N)=O)CSCC(=O)N[C@@H](Cc2cc(F)c(F)c(F)c2)C(=O)N(C)[C@@H](Cc2ccccc2)C(=O)N1C [Example 10149] ({CH2CO}-[Phe(3,4,5-F3)][NMeF][NMeNle][d(cisHyp)]DV[NMeF]D[dThz]WYLCG-NH2; thioether N-13)
3 | 1 to 9.9 | CCCC[C@H]1C(=O)N2C[C@H](O)C[C@@H]2C(=O)N[C@@H](CC(=O)O)C(=O)N[C@@H](C(C)C)C(=O)N(C)[C@@H](Cc2ccccc2)C(=O)N[C@@H](CCC(=O)O)C(=O)N2CSC[C@@H]2C(=O)N[C@@H](Cc2c[nH]c3ccccc23)C(=O)N[C@@H](Cc2ccc(O)cc2)C(=O)N[C@@H](CCO)C(=O)N[C@H](C(=O)NCC(N)=O)CSCC(=O)N[C@@H](Cc2cc(F)c(F)c(F)c2)C(=O)N(C)[C@@H](Cc2ccccc2)C(=O)N1C [Example 10150] ({CH2CO}-[Phe(3,4,5-F3)][NMeF][NMeNle][d(cisHyp)]DV[NMeF]E[dThz]WY[hSer]CG-NH2; thioether N-13)
4 | 1 to 9.9 | CCCC[C@H]1C(=O)N2C[C@H](O)C[C@@H]2C(=O)N[C@@H](CC(=O)O)C(=O)N[C@@H](C(C)C)C(=O)N(C)[C@@H](Cc2ccccc2)C(=O)N[C@@H](CC(=O)O)C(=O)N2CSC[C@@H]2C(=O)N[C@@H](Cc2c[nH]c3ccccc23)C(=O)N[C@@H](Cc2ccc(O)cc2)C(=O)N[C@@H](CCO)C(=O)N[C@H](C(=O)NCC(N)=O)CSCC(=O)N[C@@H](Cc2cc(F)c(F)c(F)c2)C(=O)N(C)[C@@H](Cc2ccccc2)C(=O)N1C [Example 10151] ({CH2CO}-[Phe(3,4,5-F3)][NMeF][NMeNle][d(cisHyp)]DV[NMeF]D[dThz]WY[hSer]CG-NH2; thioether N-13)
5 | 1 to 9.9 | CCCC[C@H]1C(=O)N2C[C@H](O)C[C@@H]2C(=O)N[C@@H](CC(=O)O)C(=O)N[C@@H](C(C)C)C(=O)N(C)[C@@H](Cc2ccccc2)C(=O)N[C@@H](CCC(=O)O)C(=O)N2CCC[C@@H]2C(=O)N[C@@H](Cc2c[nH]c3ccccc23)C(=O)N[C@@H](Cc2ccc(O)cc2)C(=O)N[C@@H](CCO)C(=O)N[C@H](C(=O)NCC(N)=O)CSCC(=O)N[C@@H](Cc2cc(F)c(F)c(F)c2)C(=O)N(C)[C@@H](Cc2ccccc2)C(=O)N1C [Example 10154] ({CH2CO}-[Phe(3,4,5-F3)][NMeF][NMeNle][d(cisHyp)]DV[NMeF]E[dP]WY[hSer]CG-NH2; thioether N-13)
6 | 1 to 9.9 | CCCC[C@H]1C(=O)N2C[C@H](O)C[C@@H]2C(=O)N[C@@H](CC(=O)O)C(=O)N[C@@H](C(C)C)C(=O)N(C)[C@@H](Cc2ccccc2)C(=O)N[C@@H](CC(=O)O)C(=O)N2CCC[C@@H]2C(=O)N[C@@H](Cc2c[nH]c3ccccc23)C(=O)N[C@@H](Cc2ccc(O)cc2)C(=O)N[C@@H](CCO)C(=O)N[C@H](C(=O)NCC(N)=O)CSCC(=O)N[C@@H](Cc2cc(F)c(F)c(F)c2)C(=O)N(C)[C@@H](Cc2ccccc2)C(=O)N1C [Example 10155] ({CH2CO}-[Phe(3,4,5-F3)][NMeF][NMeNle][d(cisHyp)]DV[NMeF]D[dP]WY[hSer]CG-NH2; thioether N-13)
7 | 1 to 9.9 | CCCC[C@H]1C(=O)N2C[C@H](O)C[C@@H]2C(=O)N[C@@H](CC(=O)O)C(=O)N[C@@H](C(C)C)C(=O)N(C)[C@@H](Cc2ccccc2)C(=O)N[C@@H](CCC(=O)O)C(=O)N2CCOC[C@@H]2C(=O)N[C@@H](Cc2c[nH]c3ccccc23)C(=O)N[C@@H](Cc2ccc(O)cc2)C(=O)N[C@@H](CCO)C(=O)N[C@H](C(=O)NCC(N)=O)CSCC(=O)N[C@@H](Cc2cc(F)c(F)c(F)c2)C(=O)N(C)[C@@H](Cc2ccccc2)C(=O)N1C [Example 10156] ({CH2CO}-[Phe(3,4,5-F3)][NMeF][NMeNle][d(cisHyp)]DV[NMeF]E[X1]WY[hSer]CG-NH2; thioether N-13)

The remaining lines, values behind:

Row | Compound | IC50 [nM]
8 | CCCC[C@H]1C(=O)N(C)[C@@H](CCOC)C(=O)N[C@@H](CCC(=O)O)C(=O)N[C@H](C(=O)NCC(N)=O)CSCC(=O)N[C@@H](Cc2ccc(O)cc2)C(=O)N(C)[C@@H](C)C(=O)N[C@@H](CC(N)=O)C(=O)N2CCC[C@H]2C(=O)N[C@@H](Cc2c[nH]cn2)C(=O)N[C@@H](CCC(N)=O)C(=O)N2C[C@H](O)C[C@H]2C(=O)N[C@@H](Cc2c[nH]c3ccccc23)C(=O)N[C@@H](CO)C(=O)N[C@@H](Cc2c[nH]c3ccccc23)C(=O)N1C [Example 10147] ({CH2CO}-Y[NMeA]NPHQ[Hyp]WSW[NMeNle][NMehSer](Me)ECG-NH2; thioether N-14) | 1 to 9.9
9 | CCCC[C@H]1C(=O)N2C[C@H](O)C[C@@H]2C(=O)N[C@@H](CC(=O)O)C(=O)N[C@@H](C(C)C)C(=O)N(C)[C@@H](Cc2ccccc2)C(=O)N[C@@H](CCCN)C(=O)N2CCC[C@@H]2C(=O)N[C@@H](Cc2c[nH]c3ccccc23)C(=O)N[C@@H](Cc2ccc(O)cc2)C(=O)N[C@@H](CCO)C(=O)N[C@H](C(=O)NCC(N)=O)CSCC(=O)N[C@@H](Cc2cc(F)c(F)c(F)c2)C(=O)N(C)[C@@H](Cc2ccccc2)C(=O)N1C [Example 10152] ({CH2CO}-[Phe(3,4,5-F3)][NMeF][NMeNle][d(cisHyp)]DV[NMeF][Orn][dP]WY[hSer]CG-NH2; thioether N-13) | 1 to 9.9
10 | CCCC[C@H]1C(=O)N2C[C@H](O)C[C@@H]2C(=O)N[C@@H](CC(=O)O)C(=O)N[C@@H](C(C)C)C(=O)N(C)[C@@H](Cc2ccccc2)C(=O)N[C@@H](Cc2ccc(O)cc2)C(=O)N2CCC[C@@H]2C(=O)N[C@@H](Cc2c[nH]c3ccccc23)C(=O)N[C@@H](Cc2ccc(O)cc2)C(=O)N[C@@H](CCO)C(=O)N[C@H](C(=O)NCC(N)=O)CSCC(=O)N[C@@H](Cc2cc(F)c(F)c(F)c2)C(=O)N(C)[C@@H](Cc2ccccc2)C(=O)N1C [Example 10153] ({CH2CO}-[Phe(3,4,5-F3)][NMeF][NMeNle][d(cisHyp)]DV[NMeF]Y[dP]WY[hSer]CG-NH2; thioether N-13) | 1 to 9.9
11 | CCCC[C@H]1C(=O)N2C[C@H](O)C[C@@H]2C(=O)N[C@@H](CC(=O)O)C(=O)N[C@@H](C(C)C)C(=O)N(C)[C@@H](Cc2ccccc2)C(=O)N[C@@H](CCCN)C(=O)N2CCOC[C@@H]2C(=O)N[C@@H](Cc2c[nH]c3ccccc23)C(=O)N[C@@H](Cc2ccc(O)cc2)C(=O)N[C@@H](CCO)C(=O)N[C@H](C(=O)NCC(N)=O)CSCC(=O)N[C@@H](Cc2cc(F)c(F)c(F)c2)C(=O)N(C)[C@@H](Cc2ccccc2)C(=O)N1C [Example 10158] ({CH2CO}-[Phe(3,4,5-F3)][NMeF][NMeNle][d(cisHyp)]DV[NMeF][Orn][X1]WY[hSer]CG-NH2; thioether N-13) | 1 to 9.9
12 | CCCC[C@H]1C(=O)N2C[C@H](O)C[C@@H]2C(=O)N[C@@H](CC(=O)O)C(=O)N[C@@H](C(C)C)C(=O)N(C)[C@@H](Cc2ccccc2)C(=O)N[C@@H](Cc2ccc(O)cc2)C(=O)N2CCOC[C@@H]2C(=O)N[C@@H](Cc2c[nH]c3ccccc23)C(=O)N[C@@H](Cc2ccc(O)cc2)C(=O)N[C@@H](CCO)C(=O)N[C@H](C(=O)NCC(N)=O)CSCC(=O)N[C@@H](Cc2cc(F)c(F)c(F)c2)C(=O)N(C)[C@@H](Cc2ccccc2)C(=O)N1C [Example 10159] ({CH2CO}-[Phe(3,4,5-F3)][NMeF][NMeNle][d(cisHyp)]DV[NMeF]Y[X1]WY[hSer]CG-NH2; thioether N-13) | 1 to 9.9
13 | CCCC[C@H]1C(=O)N2C[C@H](O)C[C@@H]2C(=O)N[C@@H](CC(=O)O)C(=O)N[C@@H](C(C)C)C(=O)N(C)[C@@H](Cc2ccccc2)C(=O)N[C@@H](Cc2ccc(O)cc2)C(=O)N2CCOC[C@@H]2C(=O)N[C@@H](Cc2c[nH]c3ccccc23)C(=O)N[C@@H](Cc2ccc(O)cc2)C(=O)N[C@@H](CCOC)C(=O)N[C@H](C(=O)NCC(N)=O)CSCC(=O)N[C@@H](Cc2cc(F)c(F)c(F)c2)C(=O)N(C)[C@@H](Cc2ccccc2)C(=O)N1C [Example 10160] ({CH2CO}-[Phe(3,4,5-F3)][NMeF][NMeNle][d(cisHyp)]DV[NMeF]Y[X1]WY[hSer](Me)CG-NH2; thioether N-13) | 1 to 9.9

Same assay, conditions: PD-L1-His 10 nM, PD-1-Ig 20 nM; read-out: HTRF Human PD-L1/PD-1 Binding Assay IC50

Row | IC50 [nM] | Compound
14 | 4.1 | CCCC[C@H]1C(=O)N2C[C@H](O)C[C@@H]2C(=O)N[C@@H](CC(=O)O)C(=O)N[C@@H](C(C)C)C(=O)N(C)[C@@H](Cc2ccccc2)C(=O)N[C@@H](CC(=O)O)C(=O)N2CCOC[C@@H]2C(=O)N[C@@H](Cc2c[nH]c3ccccc23)C(=O)N[C@@H](Cc2ccc(O)cc2)C(=O)N[C@@H](CCO)C(=O)N[C@H](C(=O)NCC(N)=O)CSCC(=O)N[C@@H](Cc2cc(F)c(F)c(F)c2)C(=O)N(C)[C@@H](Cc2ccccc2)C(=O)N1C [Example 10157] ({CH2CO}-[Phe(3,4,5-F3)][NMeF][NMeNle][d(cisHyp)]DV[NMeF]D[X1]WY[hSer]CG-NH2; thioether N-13)
